The results in this text go back to patent US20050234041A1, “Substituted 1-benzazepines and derivatives thereof” (priority 2001, published 2005).

The subject of one experiment is Campylobacter jejuni. The experiment in a line: MIC, broth dilution method, Campylobacter jejuni. Particulars: for MIC: Campylobacter jejuni. The experiment is classed as cell-based. The text has this: (§1) Antibacterial activity can be determined by several standard methods well known by those skilled in the art, including disc diffusions methods, broth dilution minimal inhibitory concentration (MIC) methods, etc., including the detailed method outlined below and as defined by the National Committee of Clinical Laboratory Standards in the United States.
(§2) MIC, Broth Dilution Method
(§3) Cultures of bacteria are initially brought up from the freezer stocks onto chocolate agar plates by streaking a loop-full, then incubated for 18 hours at 35-37° C. in a 5% CO2 incubator.
(§4) Five to 10 colonies are picked from the chocolate agar plate for subculture to Brain-Heart Infusion (BHI) broth or Mueller Hinton broth or BHI containing 4% serum and incubated as described.
(§5) Evaluate the optical density of the organisms in the wells of a 96 well microtiter plate with and without the test compound. The optical density of the organisms in the presence of an active compound will be less than the optical density of the same organism untreated. The activity of the compounds is described as either negative or the lowest concentration inhibiting growth. The results are depicted in Table III, where +/− represents the least activity and ++++ represents the greatest activity. In Table IV, the results are depicted where MIC represents the lowest concentration of antibiotic that inhibits bacterial growth.

The subject of a further experiment is Helicobacter pylori. The experiment in a line: MIC, broth dilution method, Helicobacter pylori. The experiment is classed as cell-based. Particulars: for MIC: Helicobacter pylori.
Source text: as §1, §2, §3, §4, §5
(In general: Broth dilution looks for growth in wells or tubes with falling amounts of substance.)

The mark [1] stands for this setting: Table IV, MIC, lowest concentration that inhibits bacterial growth, read-out: Antibacterial Activity (micrograms/ml) Campylobacter jejuni.
[2] abbreviates: Table IV, MIC, lowest concentration that inhibits bacterial growth, read-out: Antibacterial Activity (micrograms/ml) Helicobacter pylori.
Setting [3] is: Table IV, MIC, lowest concentration that inhibits bacterial growth.
Where [4] appears, read: Table V, read-out: MIC (μg/mL) C. jejuni.
Where [5] appears, read: Table V, read-out: MIC (μg/mL) H. pylori.

The structures appear in SMILES notation. Values after ≈ are worked out from the molar mass of the structure shown. Read-outs that look alike come from different tables or passages of the source. Bounds are passed on as bounds.

Turning to `CCOC(=O)C1CCc2ccc(OC)cc2N(CC)C1=O` (racemic) [Example 4, 3(R,S)-Ethoxycarbonyl-1-ethyl-8-methoxy-2,3,4,5-tetrahydro-1H-1-benzazepine-2-one], the MIC with Campylobacter jejuni (setting [1]) was 50 µg/mL (≈ 172 µM); in the experiment with Helicobacter pylori (setting [2]) it was 125 to 250 µg/mL (≈ 429 to 858 µM).
The like results for `CCOC(=O)C1(CC)CCc2ccc(OC)cc2N(CC)C1=O` (racemic) [Example 6, 1,3-Diethyl-3(R,S)-ethoxycarbonyl-8-methoxy-2,3,4,5-tetrahydro-1H-1-benzazepine-2-one] were, in that order, 50 µg/mL (≈ 157 µM) and 12.5 µg/mL (≈ 39.1 µM).
For `CCN1C(=O)C(CC)(C(=O)O)CCc2ccc(OC)cc21` (racemic) [Example 7, 3(R,S)-Carboxyl-1,3-diethyl-8-methoxy-2,3,4,5-tetrahydro-1H-1-benzazepine-2-one], the MIC with Campylobacter jejuni (setting [1]) was greater than 200 µg/mL; in the experiment with Helicobacter pylori (setting [2]) it was 100 µg/mL (≈ 343 µM).
Take `CCN1C(=O)C(C(=O)OC(C)(C)C)CCc2cc(N3CCN(C(=O)OC(C)(C)C)CC3)c(OC)cc21` (racemic) [Example 14, 3(R,S)-tert-Butoxycarbonyl-7-[(4-tert-butoxycarbonyl-piperazin)-1-yl]-1-ethyl-8-methoxy-2,3,4,5-tetrahydro-1H-1-benzazepine-2-one]: in the experiment with Campylobacter jejuni (setting [3]), the “Antibacterial Activity (micrograms/ml) Campylobacter jejuni” value is given as greater than 200 micrograms/ml. Further, the “Antibacterial Activity (micrograms/ml) Helicobacter pylori” value with Helicobacter pylori (setting [3]) stood at 50 micrograms/ml.
As to `COc1ccc2c(c1)N(Cc1cccc(F)c1)C(=O)C(C(=O)OC(C)(C)C)CC2` (racemic) [Example 25, 3(R,S)-tert-Butoxycarbonyl-1-(3-fluorobenzyl)-8-methoxy-2,3,4,5-tetrahydro-1H-1-benzazepine-2-one], the values for the MIC with Campylobacter jejuni (setting [1]) and in the experiment on Helicobacter pylori (setting [2]) were greater than 200 µg/mL and 12.5 µg/mL (≈ 31.3 µM), respectively.
Turning to `CCN1C(=O)C(C(=O)OC(C)(C)C)CCc2cc(N3CCN(C(=O)OCc4ccccc4)CC3)c(OC)cc21` (racemic) [Example 26, 7-[(4-benzyloxycarbonyl)-piperazin-1-yl]-3(R,S)-tert-butoxycarbonyl-1-ethyl-8-methoxy-2,3,4,5-tetrahydro-1H-1-benzazepine-2-one], the “Antibacterial Activity (micrograms/ml) Campylobacter jejuni” value with Campylobacter jejuni (setting [3]) came out at 125 micrograms/ml. Further, the “Antibacterial Activity (micrograms/ml) Helicobacter pylori” value with Helicobacter pylori (setting [3]) was found to be 12.5 micrograms/ml.
Regarding `CCN1C(=O)C(Br)(C(=O)OC)CCc2cc(Br)c(OC)cc21` (racemic) [Example 27, 3,7-dibromo-1-ethyl-3(R,S)-methoxycarbonyl-8-methoxy-2,3,4,5-tetrahydro-1H-benzazepine-2-one], the MIC in the experiment with Campylobacter jejuni (setting [1]) was greater than 200 µg/mL; in the experiment with Helicobacter pylori (setting [2]), 12.5 µg/mL (≈ 28.7 µM).
Take `CCN1C(=O)C(C(=O)OC)CCc2cc(Br)c(OC)cc21` (racemic) [Example 28, 7-bromo-1-ethyl-3(R,S)-methoxycarbonyl-8-methoxy-2,3,4,5-tetrahydro-1H-1-benzazepine-2-one]: the MIC is greater than 200 µg/mL in the experiment on Campylobacter jejuni (setting [1]) and 25 µg/mL (≈ 70.2 µM) in the experiment with Helicobacter pylori (setting [2]).
Consider `CCN1C(=O)C(C(=O)OC(C)(C)C)CCc2ccc(O[Si](C)(C)C(C)(C)C)cc21` (racemic) [Example 179, 3(R,S)-tert-Butoxycarbonyl-8-tert-Butyldimethylsilyloxy-1-ethyl-2,3,4,5-tetrahydro-1H-1-benzazepine-2-one], for which the MIC with Campylobacter jejuni (setting [4]) was greater than 200 µg/mL; with Helicobacter pylori (setting [5]), 16 µg/mL (≈ 38.1 µM).
Take `CCOc1ccc2c(c1)N(CC)C(=O)C(C(=O)OC(C)(C)C)CC2` (racemic) [Example 180, 8-Ethoxy-3(R,S)-tert-butoxycarbonyl-1-ethyl-2,3,4,5-tetrahydro-1H-1-benzazepine-2-one]: the MIC in the experiment with Campylobacter jejuni (setting [4]) was greater than 200 µg/mL; in the experiment on Helicobacter pylori (setting [5]) it was 32 µg/mL (≈ 96 µM).
On to `CC(C)(C)OC(=O)C1CCc2ccc(O)cc2N(C(=O)OC(C)(C)C)C1=O` (racemic) [Example 183, 1,3(R,S)-Di(tert-butoxycarbonyl)-8-hydroxy-2,3,4,5-tetrahydro-1H-1-benzazepine-2-one], for which the MIC is 125 µg/mL (≈ 331 µM) in the experiment on Campylobacter jejuni (setting [4]) and 64 µg/mL (≈ 170 µM) in the experiment with Helicobacter pylori (setting [5]).
The corresponding values for `COc1ccc2c(c1)N(Cc1cccc(F)c1)C(=O)C(C(=O)O)CC2` (racemic) [Example 184, 3(R,S)-carboxyl-1-(3-fluorobenzyl)-8-methoxy-2,3,4,5-tetrahydro-1H-1-benzazepine-2-one] are greater than 250 µg/mL and 125 µg/mL (≈ 364 µM).
The like results for `COc1ccc2c(c1)N(CC#N)C(=O)C(C(=O)OC(C)(C)C)CC2` (racemic) [Example 196, 3(R,S)-tert-Butoxycarbonyl-1-cyanomethyl-8-methoxy-2,3,4,5-tetrahydro-1H-1-benzazepine-2-one] were, in that order, 30 µg/mL (≈ 90.8 µM) and 4 µg/mL (≈ 12.1 µM).
The like results for `COc1cc2c(cc1[N+](=O)[O-])CCC(C(=O)OC(C)(C)C)C(=O)N2` (racemic) [Example 198, 3(R,S)-tert-Butoxycarbonyl-8-methoxy-7-nitro-2,3,4,5-tetrahydro-1H-1-benzazepine-2-one] were, in that order, 60 µg/mL (≈ 178 µM) and 4 µg/mL (≈ 11.9 µM).
With `COc1cc2c(cc1N)CCC(C(=O)OC(C)(C)C)C(=O)N2` (racemic) [Example 199, 7-Amino-3(R,S)-tert-butoxycarbonyl-8-methoxy-2,3,4,5-tetrahydro-1H-1-benzazepine-2-one], the MIC was greater than 250 µg/mL in the experiment on Campylobacter jejuni (setting [4]) and 125 µg/mL (≈ 408 µM) with Helicobacter pylori (setting [5]).
The like results for `COc1ccc2c(c1)N(CC(=O)OC(C)(C)C)C(=O)C(C(=O)OC(C)(C)C)CC2` (racemic) [Example 200, 1-(tert-Butoxycarbonyl)methyl-3(R,S)-tert-butoxycarbonyl-8-methoxy-2,3,4,5-tetrahydro-1H-1-benzazepine-2-one] were, in that order, greater than 250 µg/mL and 15 µg/mL (≈ 37 µM).
The like results for `COc1ccc2c(c1)N(CC(N)=O)C(=O)C(C(=O)OC(C)(C)C)CC2` (racemic) [Example 201, 1-(Aminocarbonyl)methyl-3(R,S)-tert-butyloxycarbonyl-8-methoxy-2,3,4,5-tetrahydro-1H-1-benzazepine-2-one] were, in that order, greater than 250 µg/mL and 60 µg/mL (≈ 172 µM).
`CCOC(=O)NC(=O)N(C(=O)NC(=O)OCC)c1cc2c(cc1OC)NC(=O)C(C(=O)OC(C)(C)C)CC2` (racemic) [Example 204, 3(R,S)-tert-Butoxycarbonyl-7-di(ethoxycabonylaminocarbonyl)amino-8-methoxy-2,3,4,5-tetrahydro-1H-1-benzazepine-2-one]: the “MIC (μg/mL) C. jejuni” value against Campylobacter jejuni (Table V) is >250, μg/mL. For the same compound, the “MIC (μg/mL) H. pylori” value in the experiment with Helicobacter pylori (Table V) amounted to 60 µg/mL (≈ 112 µM).
Regarding `COc1ccc2c(c1)N(CCN1CCOCC1)C(=O)C(C(=O)OC(C)(C)C)CC2` (racemic) [Example 213, 3(R,S)-tert-Butoxycarboxyl-8-methoxy-1-[2-(4-morpholinyl)]ethyl-2,3,4,5-tetrahydro-1H-1-benzazepine-2-one], the “MIC (μg/mL) C. jejuni” value against Campylobacter jejuni (Table V) is >250, μg/mL. In addition, in the experiment on Helicobacter pylori (Table V), the “MIC (μg/mL) H. pylori” value was determined as 125 µg/mL (≈ 309 µM).
Take `CCOC(=O)NC(=S)Nc1cc2c(cc1O)NC(=O)C(C(=O)OC(C)(C)C)CC2` (racemic) [Example 215, 3(R,S)-tert-Butoxycarbonyl-7-[(ethoxycarbonylamino)thiocarbonyl)]amino-8-hydroxyl-2,3,4,5-tetrahydro-H-1-benzazepine-2-one]: the “MIC (μg/mL) C. jejuni” value against Campylobacter jejuni (Table V) is reported as >250, μg/mL. In addition, the “MIC (μg/mL) H. pylori” value with Helicobacter pylori (Table V) came out at 30 µg/mL (≈ 70.8 µM).
For the compound `COc1ccc2c(c1)N(CCOC1CCCCO1)C(=O)C(C(=O)OC(C)(C)C)CC2` (racemic) [Example 221, 3(R,S)-tert-Butoxycarbonyl-8-methoxy-1-[2-(tetrahydro-2H-pyran-2-yl)oxyethyl]-2,3,4,5-tetrahydro-1H-1-benzazepine-2-one], the MIC was greater than 250 µg/mL with Campylobacter jejuni (setting [4]) and 15 µg/mL (≈ 35.8 µM) in the experiment on Helicobacter pylori (setting [5]).
Take `COc1ccc2c(c1)N(CCO)C(=O)C(C(=O)OC(C)(C)C)CC2` (racemic) [Example 222, 3(R,S)-tert-Butoxycarbonyl-1-(2-hydroxy)ethyl-8-methoxy-2,3,4,5-tetrahydro-1H-1-benzazepine-2-one]: in the experiment with Campylobacter jejuni (Table V), the “MIC (μg/mL) C. jejuni” value is on record as >250, μg/mL. In the experiment on Helicobacter pylori (Table V), the “MIC (μg/mL) H. pylori” value stood at 60 µg/mL (≈ 179 µM).
As to `COc1ccc2c(c1)N(CCC1OCCO1)C(=O)C(C(=O)OC(C)(C)C)CC2` (racemic) [Example 223, 3(R,S)-tert-Butoxycarbonyl-8-methoxy-1-[2-(1,3-dioxolan-2-yl)ethyl]-2,3,4,5-tetrahydro-1H-1-benzazepine-2-one], the MIC in the experiment on Campylobacter jejuni (setting [4]) is greater than 250 µg/mL; in the experiment with Helicobacter pylori (setting [5]), 60 µg/mL (≈ 153 µM).
As to `CCN1C(=O)CCCc2ccc(OC)cc21` [Example 8, 1-Ethyl-8-methoxy-2,3,4,5-tetrahydro-1H-1-benzazepine-2-one], the MIC with Campylobacter jejuni (setting [1]) was 50 µg/mL (≈ 228 µM); in the experiment on Helicobacter pylori (setting [2]), greater than 200 µg/mL.
Regarding `CCN1C(=O)C(C(=O)O)CCc2cc(N3CCN(c4cc5c(cc4OC)N(CC)C(=O)C(C(=O)O)CC5)CC3)c(OC)cc21` [Example 20, 1,4-Di-[(3(R,S)-carboxyl-1-ethyl-8-methoxy-2-oxo-2,3,4,5-tetrahydro-1H-1-benzazepine)-7-yl]-piperazine], the “Antibacterial Activity (micrograms/ml) Campylobacter jejuni” value in the experiment on Campylobacter jejuni (setting [3]) is reported as greater than 200 micrograms/ml. In addition, in the experiment with Helicobacter pylori (setting [3]), the “Antibacterial Activity (micrograms/ml) Helicobacter pylori” value was found to be 100 micrograms/ml.
With `CCN1C(=O)CCCc2cc(N3CCN(C(=O)OC(C)(C)C)CC3)c(OC)cc21` [Example 21, 7-[(4-tert-butoxycarbonylpiperazin)-1-yl]-1-ethyl-8-methoxy-2,3,4,5-tetrahydro-1H-1-benzazepine-2-one], the “Antibacterial Activity (micrograms/ml) Campylobacter jejuni” value with Campylobacter jejuni (setting [3]) is greater than 200 micrograms/ml. Further, in the experiment on Helicobacter pylori (setting [3]), the “Antibacterial Activity (micrograms/ml) Helicobacter pylori” value was 12.5-25 micrograms/ml.
